Experimental data as given in US6713057B1, “Compositions and methods for modulating serum cholesterol” (The Johns Hopkins University, priority 1999, dated 2004).

Tests used:
SREBP-1 [1] = assay: Electrophoretic mobility shift assay, SREBP-1 binding to SRE probe; format: cell-based, human; settings: for amount of probe bound (electrophoretically retarded) by mature SREBP-1: TNF-α 10 ng/ml, sphingomyelinase 100 mUnits, C2-ceramide 10 μM
Procedure: FIGS. 6A-6D show electrophoretic mobility shift assays. FIGS. 6A-D are explained in more detail as follows. Cells were maintained in sterol supplemented media. Nuclear pellets were prepared and assayed as described in materials and methods. Probe that has been bound by mature SREBP-1 is indicated as “Bound”. Unbound probe is indicated as “Free”. The kinetics (in minutes) of SREBP-1 binding to the probe in response to treatment with (FIG. 6A). TNF-α (10 ng/ml), (FIG. 6B) sphingomyelinase (100 mUnits) and (FIG. 6C) C2-ceramide ([…]). (FIG. 6D). The cells were treated with either TNF-α (10 ng/ml), sphingomyelinase (100 mUnits) or C2-ceramide (10 μM) for 15 minutes. Supershift assays were then performed with antibodies raised against the DNA binding domain of SREBP-1. The presence or absence of antibody is indicated by (+) and (−) respectively. Pre-immune IgG was used as a control.
Gel mobility shift assays were performed as follows. Each 20 μl reaction mixture contained 8-10 μg of nuclear protein plus a α-[^32P]-labeled 25-base pair oligonucleotide probe containing the SREBP-binding site (14) in binding buffer (10 mM Hepes, pH 7.5, 0.5 mM spermidine, 0.15 mM EDTA, 10 mM dithiothreitol, 0.35 mM sucrose). The reaction mixture was incubated at room temperature for 15 min and loaded directly onto a 6.5% polyacrylamide (49:0.6 acrylamide/bisacrylamide) gel in a buffer of 25 mM Tris borate (pH 8.0), 0.25 mM EDTA. In some experiments, antisera specific for SREBP or preimmune sera were added to reaction mixtures to determine the composition of protein-probe complexes. For these “supershift” assays, extracts were incubated with 1 μl of preimmune sera or an equal volume of anti-SREBP antisera at 4° C. for 30 min prior to addition of α-[^32P]-labeled probe. In all experiments, proteins were separated by electrophoresis at 200 V for 2 h at room temperature. Gels were dried and exposed to Kodak XAR film with intensifying screens. Assays were repeated with nuclear extracts obtained from three unique experiments and evaluated by phosphoimage analysis to ensure reproducibility of results.

HH-25 cells = assay: DNA laddering assay (apoptosis) in hepatocytes; settings: 1 hour treatment, concentrations as in maturation studies, refed 6 hours
SREBP-1 [2] = assay: Indirect immunofluorescence of SREBP-1 subcellular localization; format: cell-based, human; settings: 30 minutes after initiating treatment; TNF-α 10 ng/ml, sphingomyelinase 100 mUnits, C2-ceramide 10 μM
Procedure: FIGS. 5A-5D show indirect immunofluorescence of SREBP-1. FIGS. 5A-5D are discussed in more detail as follows. SREBP-1 was visualized with rabbit polyclonal antibodies directed towards the N-terminal DNA binding domain which is common to both the precursor and mature forms. Cells were maintained in media supplemented with 1 μg/ml 25-hydroxycholesterol and 15 μg/ml cholesterol for 24 hours before the experiment. Immunofluorescence was performed as described. All magnifications are 40× and all photographs were taken of samples that were fixed 30 minutes after initiating treatment. FIG. 5A) Control cells, FIG. 5B) Cells treated with TNF-α (10 ng/ml), FIG. 5C) Cells treated with sphingomyelinase (100 mUnits), FIG. 5D) Cells treated with C2-ceramide (10 μM).
Cultured HH-25 cells were grown on coverslips and treated as described. After treatment, the cells were washed 3×5 minutes with PBS containing 1 mM MgCl2 and 0.1 mM CaCl2 (solution A). The cells were fixed with 3% paraformaldehyde in solution A for 10 minutes and permeabilized with 0.5% Triton X-100 in solution A for 6 minutes at room temperature. The coverslips were then washed 3×5 minutes with solution A.
Primary antibody (anti-SREBP1) was used at a dilution of […] in PBS and applied for 1 hour with gentle shaking. The cells were washed as above and a FITC conjugated anti-rabbit IgG secondary antibody, was applied for ½ hour according to the instructions of the manufacturer. The coverslips were washed, mounted on microscope slides and were viewed and photographed at the indicated magnification on a Zeiss Axiovert 25 fluorescence microscope.

| amount of probe bound (electrophoretically retarded) by mature SREBP-1 (SREBP-1 [1]) | rate of accumulation of active, nuclear SREBP-1 compared with TNF-α or sphingomyelinase (SREBP-1 [1]) | Compound | induction of apoptosis (160 bp DNA ladder) (HH-25 cells) | subcellular localization of SREBP-1 (staining pattern) (SREBP-1 [2]) |
| --- | --- | --- | --- | --- |
| increases with time | – | TNF-α | did not induce apoptosis | intense nuclear staining and little extra-nuclear staining |
| increases | more rapid accumulation | CCCCCCCCCCCCC/C=C/[C@@H](O)[C@H](CO)NC(C)=O [C2-ceramide, N-acetylsphingosine, reference compound] | did not induce apoptosis | intense nuclear staining and little extra-nuclear staining |
